In ChEMBL document CHEMBL1240419, “Synthesis and antibacterial activity of 3-O-carbamoyl derivatives of 6,11-di-O-methylerythromycin A: a novel class of acylides” (2010):
≈ marks a conversion by molar mass, not a printed value.

Tests used:
Format in all cases: functional
[1] = system: Haemophilus influenzae; assay: Antibacterial activity against ampicillin-resistant Haemophilus influenzae 3300 by broth microdilution method
[2] = system: Staphylococcus aureus; assay: Antibacterial activity against erythromycin-resistant, methicillin-susceptible Staphylococcus aureus A265 by broth microdilution method
[3] = system: Haemophilus influenzae; assay: Antibacterial activity against ampicillin-susceptible Haemophilus influenzae ATCC 49247 by broth microdilution method
[4] = system: Staphylococcus aureus; assay: Antibacterial activity against erythromycin-susceptible Staphylococcus aureus ATCC 25923 by broth microdilution method
[5] = system: Streptococcus pneumoniae; assay: Antibacterial activity against erythromycin-susceptible Streptococcus pneumoniae ATCC 49619 by broth microdilution method
[6] = system: Staphylococcus aureus; assay: Antibacterial activity against erythromycin, methicillin-resistant Staphylococcus aureus A333 by broth microdilution method
[7] = system: Streptococcus pneumoniae; assay: Antibacterial activity against erythromycin-resistant Streptococcus pneumoniae 3469 by broth microdilution method

SMILES	MIC [1] [µg/mL]	MIC [2] [µg/mL]	MIC [3] [µg/mL]	MIC [4] [µg/mL]	MIC [5] [µg/mL]	MIC [6] [µg/mL]	MIC [7] [µg/mL]
CC[C@H]1OC(=O)[C@H](C)[C@@H](OC(=O)NCCCOC(C)C)[C@H](C)[C@@H](O[C@@H]2O[C@H](C)C[C@H](N(C)C)[C@H]2O)[C@](C)(OC)C[C@@H](C)C(=O)[C@@H](C)[C@@H](OC)[C@]1(C)O	32 (≈ 42.8 µM)	4 (≈ 5.35 µM)	16 (≈ 21.4 µM)	4 (≈ 5.35 µM)	0.5 (≈ 0.669 µM)	> 64	8 (≈ 10.7 µM)
CC[C@H]1OC(=O)[C@H](C)[C@@H](OC(=O)Nc2nccs2)[C@H](C)[C@@H](O[C@@H]2O[C@H](C)C[C@H](N(C)C)[C@H]2O)[C@](C)(OC)C[C@@H](C)C(=O)[C@@H](C)[C@@H](OC)[C@]1(C)O	32 (≈ 43.8 µM)	32 (≈ 43.8 µM)	32 (≈ 43.8 µM)	32 (≈ 43.8 µM)	0.125 (≈ 0.171 µM)	> 64	8 (≈ 11 µM)
CC[C@H]1OC(=O)[C@H](C)[C@@H](OC(=O)NCc2ccc(Br)cc2)[C@H](C)[C@@H](O[C@@H]2O[C@H](C)C[C@H](N(C)C)[C@H]2O)[C@](C)(OC)C[C@@H](C)C(=O)[C@@H](C)[C@@H](OC)[C@]1(C)O	2 (≈ 2.45 µM)	0.125 (≈ 0.153 µM)	2 (≈ 2.45 µM)	0.125 (≈ 0.153 µM)	0.125 (≈ 0.153 µM)	32 (≈ 39.2 µM)	0.125 (≈ 0.153 µM)
CC[C@H]1OC(=O)[C@H](C)[C@@H](OC(=O)NCc2ccc(OC)cc2)[C@H](C)[C@@H](O[C@@H]2O[C@H](C)C[C@H](N(C)C)[C@H]2O)[C@](C)(OC)C[C@@H](C)C(=O)[C@@H](C)[C@@H](OC)[C@]1(C)O	0.5 (≈ 0.652 µM)	0.125 (≈ 0.163 µM)	1 (≈ 1.3 µM)	0.125 (≈ 0.163 µM)	0.5 (≈ 0.652 µM)	> 64	0.5 (≈ 0.652 µM)
CC[C@H]1OC(=O)[C@H](C)[C@@H](OC(=O)NCCc2ccc(O)cc2)[C@H](C)[C@@H](O[C@@H]2O[C@H](C)C[C@H](N(C)C)[C@H]2O)[C@](C)(OC)C[C@@H](C)C(=O)[C@@H](C)[C@@H](OC)[C@]1(C)O	8 (≈ 10.4 µM)	2 (≈ 2.61 µM)	8 (≈ 10.4 µM)	4 (≈ 5.22 µM)	0.25 (≈ 0.326 µM)	> 64	0.25 (≈ 0.326 µM)
CCCCCNC(=O)O[C@H]1[C@H](C)[C@@H](O[C@@H]2O[C@H](C)C[C@H](N(C)C)[C@H]2O)[C@](C)(OC)C[C@@H](C)C(=O)[C@@H](C)[C@@H](OC)[C@](C)(O)[C@@H](CC)OC(=O)[C@@H]1C	4 (≈ 5.58 µM)	4 (≈ 5.58 µM)	4 (≈ 5.58 µM)	2 (≈ 2.79 µM)	0.125 (≈ 0.174 µM)	> 64	0.25 (≈ 0.349 µM)
CC[C@H]1OC(=O)[C@H](C)[C@@H](OC(=O)NCCc2ccccc2)[C@H](C)[C@@H](O[C@@H]2O[C@H](C)C[C@H](N(C)C)[C@H]2O)[C@](C)(OC)C[C@@H](C)C(=O)[C@@H](C)[C@@H](OC)[C@]1(C)O	4 (≈ 5.33 µM)	8 (≈ 10.7 µM)	4 (≈ 5.33 µM)	8 (≈ 10.7 µM)	4 (≈ 5.33 µM)	> 64	64 (≈ 85.2 µM)
CC[C@H]1OC(=O)[C@H](C)[C@@H](OC(=O)NCc2ccc(Cl)cc2)[C@H](C)[C@@H](O[C@@H]2O[C@H](C)C[C@H](N(C)C)[C@H]2O)[C@](C)(OC)C[C@@H](C)C(=O)[C@@H](C)[C@@H](OC)[C@]1(C)O	4 (≈ 5.19 µM)	0.125 (≈ 0.162 µM)	2 (≈ 2.59 µM)	4 (≈ 5.19 µM)	0.125 (≈ 0.162 µM)	> 64	0.5 (≈ 0.648 µM)
CC[C@H]1OC(=O)[C@H](C)[C@@H](O[C@H]2C[C@@](C)(OC)[C@@H](O)[C@H](C)O2)[C@H](C)[C@@H](O[C@@H]2O[C@H](C)C[C@H](N(C)C)[C@H]2O)[C@](C)(OC)C[C@@H](C)C(=O)[C@H](C)[C@@H](O)[C@]1(C)O [CLARITHROMYCIN]	8 (≈ 10.7 µM)	4 (≈ 5.35 µM)	8 (≈ 10.7 µM)	0.25 (≈ 0.334 µM)	0.25 (≈ 0.334 µM)	> 64	2 (≈ 2.67 µM)
CC[C@H]1OC(=O)[C@H](C)[C@@H](O[C@H]2C[C@@](C)(OC)[C@@H](O)[C@H](C)O2)[C@H](C)[C@@H](O[C@@H]2O[C@H](C)C[C@H](N(C)C)[C@H]2O)[C@](C)(O)C[C@@H](C)C(=O)[C@H](C)[C@@H](O)[C@]1(C)O [ERYTHROMYCIN]	16 (≈ 21.8 µM)	2 (≈ 2.73 µM)	16 (≈ 21.8 µM)	0.125 (≈ 0.17 µM)	0.25 (≈ 0.341 µM)	> 64	1 (≈ 1.36 µM)
CC[C@H]1OC(=O)[C@H](C)[C@@H](OC(=O)NCc2ccc(F)cc2)[C@H](C)[C@@H](O[C@@H]2O[C@H](C)C[C@H](N(C)C)[C@H]2O)[C@](C)(OC)C[C@@H](C)C(=O)[C@@H](C)[C@@H](OC)[C@]1(C)O	4 (≈ 5.3 µM)	0.125 (≈ 0.166 µM)	4 (≈ 5.3 µM)	4 (≈ 5.3 µM)	0.125 (≈ 0.166 µM)	> 64	0.125 (≈ 0.166 µM)
CCOCCCNC(=O)O[C@H]1[C@H](C)[C@@H](O[C@@H]2O[C@H](C)C[C@H](N(C)C)[C@H]2O)[C@](C)(OC)C[C@@H](C)C(=O)[C@@H](C)[C@@H](OC)[C@](C)(O)[C@@H](CC)OC(=O)[C@@H]1C	8 (≈ 10.9 µM)	8 (≈ 10.9 µM)	8 (≈ 10.9 µM)	8 (≈ 10.9 µM)	0.125 (≈ 0.171 µM)	> 64	0.125 (≈ 0.171 µM)
CCCCNC(=O)O[C@H]1[C@H](C)[C@@H](O[C@@H]2O[C@H](C)C[C@H](N(C)C)[C@H]2O)[C@](C)(OC)C[C@@H](C)C(=O)[C@@H](C)[C@@H](OC)[C@](C)(O)[C@@H](CC)OC(=O)[C@@H]1C	4 (≈ 5.69 µM)	1 (≈ 1.42 µM)	4 (≈ 5.69 µM)	1 (≈ 1.42 µM)	0.125 (≈ 0.178 µM)	> 64	0.125 (≈ 0.178 µM)
CC[C@H]1OC(=O)[C@H](C)[C@@H](OC(=O)NCCc2ccccc2F)[C@H](C)[C@@H](O[C@@H]2O[C@H](C)C[C@H](N(C)C)[C@H]2O)[C@](C)(OC)C[C@@H](C)C(=O)[C@@H](C)[C@@H](OC)[C@]1(C)O	16 (≈ 20.8 µM)	16 (≈ 20.8 µM)	16 (≈ 20.8 µM)	8 (≈ 10.4 µM)	0.125 (≈ 0.163 µM)	64 (≈ 83.2 µM)	0.125 (≈ 0.163 µM)
CC[C@H]1OC(=O)[C@H](C)[C@@H](OC(=O)NCCc2ccc(F)cc2)[C@H](C)[C@@H](O[C@@H]2O[C@H](C)C[C@H](N(C)C)[C@H]2O)[C@](C)(OC)C[C@@H](C)C(=O)[C@@H](C)[C@@H](OC)[C@]1(C)O	8 (≈ 10.4 µM)	2 (≈ 2.6 µM)	8 (≈ 10.4 µM)	2 (≈ 2.6 µM)	0.125 (≈ 0.163 µM)	32 (≈ 41.6 µM)	0.125 (≈ 0.163 µM)
CC[C@H]1OC(=O)[C@H](C)[C@@H](OC(=O)NCCCOC)[C@H](C)[C@@H](O[C@@H]2O[C@H](C)C[C@H](N(C)C)[C@H]2O)[C@](C)(OC)C[C@@H](C)C(=O)[C@@H](C)[C@@H](OC)[C@]1(C)O	16 (≈ 22.3 µM)	4 (≈ 5.56 µM)	32 (≈ 44.5 µM)	8 (≈ 11.1 µM)	0.125 (≈ 0.174 µM)	> 64	0.125 (≈ 0.174 µM)
CC[C@H]1OC(=O)[C@H](C)[C@@H](OC(=O)NCc2ccc(C)cc2)[C@H](C)[C@@H](O[C@@H]2O[C@H](C)C[C@H](N(C)C)[C@H]2O)[C@](C)(OC)C[C@@H](C)C(=O)[C@@H](C)[C@@H](OC)[C@]1(C)O	4 (≈ 5.33 µM)	0.125 (≈ 0.166 µM)	4 (≈ 5.33 µM)	0.25 (≈ 0.333 µM)	0.125 (≈ 0.166 µM)	64 (≈ 85.2 µM)	0.25 (≈ 0.333 µM)
CC[C@H]1OC(=O)[C@H](C)[C@@H](OC(=O)NCCc2ccc(OC)c(OC)c2)[C@H](C)[C@@H](O[C@@H]2O[C@H](C)C[C@H](N(C)C)[C@H]2O)[C@](C)(OC)C[C@@H](C)C(=O)[C@@H](C)[C@@H](OC)[C@]1(C)O	32 (≈ 39.5 µM)	8 (≈ 9.86 µM)	32 (≈ 39.5 µM)	2 (≈ 2.47 µM)	0.125 (≈ 0.154 µM)	> 64	0.25 (≈ 0.308 µM)
CC[C@H]1OC(=O)[C@H](C)[C@@H](OC(=O)NCc2ccc(O)cc2)[C@H](C)[C@@H](O[C@@H]2O[C@H](C)C[C@H](N(C)C)[C@H]2O)[C@](C)(OC)C[C@@H](C)C(=O)[C@@H](C)[C@@H](OC)[C@]1(C)O	1 (≈ 1.33 µM)	0.25 (≈ 0.332 µM)	1 (≈ 1.33 µM)	1 (≈ 1.33 µM)	1 (≈ 1.33 µM)	> 64	32 (≈ 42.5 µM)
